According to patent US20210246115A1 (Bioimics AB, priority 2017, published 2021):
Values after ≈ are worked out from the molar mass of the structure shown. Structures can show the parent of a compound that is named as a salt. Where two headings read alike, the source gives them in different places.

Key:
[1] = tested on: Staphylococcus aureus subsp. aureus (ATCC29213); experiment: MIC, broth microdilution (CLSI), Staphylococcus aureus ATCC29213; format: cell-based; settings: for MIC: Staphylococcus aureus
[2] = tested on: Escherichia coli (ATCC25922); experiment: MIC, broth microdilution (CLSI), Escherichia coli; settings: for MIC: Escherichia coli, ATCC25922, read-out: E. coli ATCC 25922 MIC, Table XIII
[3] = ATCC29213, Table XIII, read-out: S. aureus ATCC 29213 MIC
[4] = ATCC29213, read-out: S. aureus ATCC 29213 MIC, Table XIII

Row | SMILES | MIC [1, 3] | MIC [2] | MIC [1, 4] | S. aureus ATCC 29213 MIC ([1]; Table XIII, hydrochloride salt) | E. coli ATCC 25922 MIC ([2]; Table XIII, hydrochloride salt)
1 | Cl.Cl.NCCCNCCC(c1cncc2ccccc12)c1cn(C2CCCCC2)c2ccccc12 (stereo not drawn) [Compound 369, N1-(3-(1-cyclohexyl-1H-indol-3-yl)-3-(isoquinolin-4-yl)propyl)propane-1,3-diamine hydrochloride] | 8 µg/mL | 8 µg/mL |  |  | 
2 | Cc1cccc(C(CCN(C#N)C2CCC(NC(N)=O)CC2)c2cn(C3CCCCC3)c3ccccc23)c1 [Compound 361, 1-(((1S,4S)-4-(N-(3-(1-cyclohexyl-1H-indol-3-yl)-3-(m-tolyl)propyl)cyanamido)cyclohexyl)urea salt] | > 128 µg/mL | > 128 µg/mL |  |  | 
3 | Cc1cccc(C(CCNC2CCC(N)CC2)c2cn(C3CCOCC3)c3ccccc23)c1 (stereo not drawn) [Compound 307, N1-(3-(1-(tetrahydro-2H-pyran-4-yl)-1H-indol-3-yl)-3-(m-tolyl)propyl) cyclohexane-1,4-diamine hydrochloride salt] |  | 64 µg/mL | 64 µg/mL |  | 
4 | Cc1cccc(C(CCNCCCN)c2cn(CC3CCNCC3)c3ccc(C#N)cc23)c1 (stereo not drawn) [Compound 327, 3-(3-((3-aminopropyl)amino)-1-(m-tolyl)propyl)-1-(piperidin-4-ylmethyl)-1H-indole-5-carbonitrile hydrochloride salt] |  | > 128 µg/mL | 32 µg/mL |  | 
5 | Cc1cccc(C(CCNC2CCNCC2)c2cn(CC3CCNCC3)c3ccc(C#N)cc23)c1 (stereo not drawn) [Compound 326, 3-(3-(piperidin-4-ylamino)-1-(m-tolyl)propyl)-1-(piperidin-4-ylmethyl)-1H-indole-5-carbonitrile hydrochloride salt] |  | 128 µg/mL | 32 µg/mL |  | 
6 | Cc1cccc(C(CCNC2CCC(N)CC2)c2cn(CC3CCOCC3)c3ccc(CN)cc23)c1 (stereo not drawn) [Compound 311, N1-(3-(5-(aminomethyl)-1-((tetrahydro-2H-pyran-4-yl)methyl)-1H-indol-3-yl)-3-(m-tolyl)propyl) cyclohexane-1,4-diamine hydrochloride salt] |  | > 128 µg/mL | 128 µg/mL |  | 
7 | Cl.Cl.N[C@H]1CC[C@H](NCCC(c2cn(C3CCCCC3)c3ccccc23)C2CCCCC2)CC1 (stereo partly drawn) [Compound 378] | 4 µg/mL | 8 µg/mL |  |  | 
8 | Cc1cccc(C(CCNCCCCN)c2cn(C3CCCCC3)c3ccccc23)c1.Cl.Cl (stereo not drawn) [Compound 350, N1-(3-(1-cyclohexyl-1H-indol-3-yl)-3-(m-tolyl)propyl)butane-1,4-diamine salt] | 8 µg/mL | 8 µg/mL |  |  | 
9 | Cl.Cl.c1ccc2c(c1)c(C(CCNC1CCNCC1)c1ccncc1)cn2C1CC2CCC1C2 (stereo not drawn) [Compound 337, N-(3-(1-(bicyclo[2.2.1]heptan-2-yl)-1H-indol-3-yl)-3-(pyridin-4-yl)propyl)piperidin-4-amine hydrochloride salt] | 32 µg/mL | 64 µg/mL |  |  | 
10 | Cl.Cl.N#Cc1ccc2c(c1)c(C(CCNC1CCNCC1)C1CCCCC1)cn2C1CCCCC1 (stereo not drawn) [Compound 406, 1-cyclohexyl-3-(1-cyclohexyl-3-(piperidin-4-ylamino)propyl)-1H-indole-5-carbonitrile salt] | 8 µg/mL | 8 µg/mL |  |  | 
11 | Cl.Cl.NCCCNCCC(c1cn(C2CCCCC2)c2ccccc12)C1CC1 (stereo not drawn) [Compound 422, N1-(3-(1-cyclohexyl-1H-indol-3-yl)-3-cyclopropylpropyl) propane-1,3-diamine hydrochloride salt] | 32 µg/mL | 16 µg/mL |  |  | 
12 | Cl.Cl.NCCCNCCC(c1cccnc1)c1cn(C2CC3CCC2C3)c2ccccc12 (stereo not drawn) [Compound 328, N1-(3-(1-(bicyclo[2.2.1]heptan-2-yl)-1H-indol-3-yl)-3-(pyridin-3-yl)propyl)propane-1,3-diamine hydrochloride salt] | 32 µg/mL | 64 µg/mL |  |  | 
13 | Cl.Cl.c1cncc(C(CCNC2CCNCC2)c2cn(C3CCCCC3)c3ccccc23)c1 (stereo not drawn) [Compound 329, N-(3-(1-cyclohexyl-1H-indol-3-yl)-3-(pyridin-3-yl)propyl)piperidin-4-amine hydrochloride salt] | 32 µg/mL | 64 µg/mL |  |  | 
14 | Cc1cccc(C(CCN)c2cn(C3CCCCC3)c3ccccc23)c1.Cl (stereo not drawn) [Compound 352, 3-(1-cyclohexyl-1H-indol-3-yl)-3-(m-tolyl)propan-1-amine hydrochloride salt] | 8 µg/mL | > 128 µg/mL |  |  | 
15 | N[C@H]1CC[C@H](NCCC(c2ccncc2)c2cn(C3CC4CCC3C4)c3ccccc23)CC1 (stereo partly drawn) [Compound 336, (1R,4R)-N1-(3-(1-(bicyclo[2.2.1]heptan-2-yl)-1H-indol-3-yl)-3-(pyridin-4-yl)propyl)cyclohexane-1,4-diamine hydrochloride salt] |  | 128 µg/mL | 64 µg/mL |  | 
16 | CNCCCNCCC(c1cccc(C)c1)c1cn(C2CCCCC2)c2ccccc12.Cl.Cl (stereo not drawn) [Compound 368, N1-(3-(1-cyclohexyl-1H-indol-3-yl)-3-(m-tolyl)propyl)-N3-methylpropane-1,3-diamine hydrochloride] | 8 µg/mL | 8 µg/mL |  |  | 
17 | Cc1cccc(C(CCNCCN)c2cn(C3CCCCC3)c3ccccc23)c1.Cl.Cl (stereo not drawn) [Compound 347, N1-(3-(1-cyclohexyl-1H-indol-3-yl)-3-(m-tolyl)propyl)ethane-1,2-diamine hydrochloride salt] | 8 µg/mL | 16 µg/mL |  |  | 

Row | SMILES | MIC [1, 3] | MIC [2] | MIC [1, 4] | S. aureus ATCC 29213 MIC ([1]; Table XIII, hydrochloride salt) | E. coli ATCC 25922 MIC ([2]; Table XIII, hydrochloride salt)
18 | COc1cccc(C(CCNC2CCC(N)CC2)c2cn(C3CCCCC3)c3ccc(C#N)cc23)c1 (stereo not drawn) [Compound 400, 3-(3-(((1s,4s)-4-aminocyclohexyl)amino)-1-(3-methoxyphenyl)propyl)-1-cyclohexyl-1H-indole-5-carbonitrile hydrochloride salt] |  | 16 µg/mL | 16 µg/mL |  | 
19 | Cc1cccc(C(CCNC2CCC(N)CC2)c2cn(C3CCCCC3)c3ccccc23)c1 [Compound 392, (1S,4S)- -N1-(3-(1-cyclohexyl-1H-indol-3-yl)-3-(m-tolyl)propyl) cyclohexane-1,4-diamine hydrochloride salt] |  |  |  | 8 µg/mL | 8 µg/mL
20 | Cc1cccc(C(CCNC2CCNCC2)c2cn(C3CCNCC3)c3ccccc23)c1 (stereo not drawn) [Compound 317, N-(3-(1-(piperidin-4-yl)-1H-indol-3-yl)-3-(m-tolyl)propyl)piperidin-4-amine hydrochloride salt] |  | > 128 µg/mL | 64 µg/mL |  | 
21 | CCN(Cc1cn(CC2CCCCC2)c2ccccc12)CC1CCNCC1 [Compound 302, hydrochloride salt] |  | 128 µg/mL | 128 µg/mL |  | 
22 | Cc1cccc(C(CCNCCCN)c2cn(CC3CCOCC3)c3ccc(C#N)cc23)c1 (stereo not drawn) [Compound 318, 3-(3-((3-aminopropyl)amino)-1-(m-tolyl)propyl)-1-((tetrahydro-2H-pyran-4-yl)methyl)-1H-indole-5-carbonitrile hydrochloride salt] |  | > 128 µg/mL | 64 µg/mL |  | 
23 | Cc1cccc(C(CCNCCCN)c2cn(CC3CCCCC3)c3ccccc23)c1.Cl.Cl (stereo not drawn) [Compound 346, N1-(3-(1-(cyclohexylmethyl)-1H-indol-3-yl)-3-(m-tolyl)propyl)propane-1,3-diamine hydrochloride salt] | 8 µg/mL | 8 µg/mL |  |  | 
24 | Cl.Cl.NCCCNCCC(c1ccncc1)c1cn(C2CCCCC2)c2ccccc12 (stereo not drawn) [Compound 339, N1-(3-(1-cyclohexyl-1H-indol-3-yl)-3-(pyridin-4-yl)propyl)propane-1,3-diamine hydrochloride salt] | 32 µg/mL | 128 µg/mL |  |  | 
25 | COc1cccc(C(CCNC2CCNCC2)c2cn(C3CCCCC3)c3ccc(C#N)cc23)c1 (stereo not drawn) [Compound 401, 1-cyclohexyl-3-(1-(3-methoxyphenyl)-3-(piperidin-4-ylamino)propyl)-1H-indole-5-carbonitrile hydrochloride salt] |  | 16 µg/mL | 16 µg/mL |  | 
26 | Cc1cccc(C(CCOC2OC(CO)C(O)C(O)C2O)c2cn(C3CCCCC3)c3ccccc23)c1 (stereo not drawn) [Compound 388, 2-(3-(1-cyclohexyl-1H-indol-3-yl)-3-(m-tolyl)propoxy)-6-(hydroxymethyl) tetrahydro-2H-pyran-3,4,5-triol] | 16 µg/mL (≈ 31.4 µM) | > 128 µg/mL |  |  | 
27 | Cc1cccc(C(CCNCC(O)CN)c2cn(C3CCCCC3)c3ccccc23)c1 (stereo not drawn) [Compound 386, 1-amino-3-((3-(1-cyclohexyl-1H-indol-3-yl)-3-(m-tolyl)propyl)amino) propan-2-ol] | 16 µg/mL (≈ 38.1 µM) | 8 µg/mL (≈ 19.1 µM) |  |  | 
28 | Cc1cccc(C(CCNC2CCC(N)CC2)c2cn(CC3CCNCC3)c3ccccc23)c1 (stereo not drawn) [Compound 313, N1-(3-(1-(piperidin-4-ylmethyl)-1H-indol-3-yl)-3-(m-tolyl)propyl)cyclohexane-1,4-diamine hydrochloride salt] |  | > 128 µg/mL | 16 µg/mL |  | 
29 | CCN(Cc1cn(CC2CCCCC2)c2ccccc12)CC1CCN(C)CC1 [Compound 303, N-((1-(cyclohexylmethyl)-1H-indol-3-yl)methyl)-N-((1-methylpiperidin-4-yl)methyl)ethanamine] | 128 µg/mL (≈ 335 µM) | 128 µg/mL (≈ 335 µM) |  |  | 
30 | Cc1cccc(C(CCNCCCN)c2cn(CC3CCNCC3)c3ccccc23)c1 (stereo not drawn) [Compound 314, N1-(3-(1-(piperidin-4-ylmethyl)-1H-indol-3-yl)-3-(m-tolyl)propyl)propane-1,3-diamine hydrochloride salt] |  | > 128 µg/mL | 16 µg/mL |  | 
31 | CC(=O)N1CCC(N(CCC(c2cccc(C)c2)c2cn(C3CCCCC3)c3ccccc23)C(C)=O)CC1 (stereo not drawn) [Compound 354, N-(1-acetylpiperidin-4-yl)-N-(3-(1-cyclohexyl-1H-indol-3-yl)-3-(m-tolyl)propyl)acetamide salt] | 128 µg/mL | > 128 µg/mL |  |  | 
32 | Cc1cccc(C(CCNCCCO)c2cn(C3CCCCC3)c3ccccc23)c1 (stereo not drawn) [Compound 366, 3-((3-(1-cyclohexyl-1H-indol-3-yl)-3-(m-tolyl)propyl)amino) propan-1-ol] | 16 µg/mL (≈ 39.5 µM) | > 128 µg/mL |  |  | 
33 | Cc1cccc(C(CCNC2CCC(N)CC2)c2cn(CC3CCOCC3)c3ccc(C#N)cc23)c1 (stereo not drawn) [Compound 312, 3-(3-((4-aminocyclohexyl)amino)-1-(m-tolyl)propyl)-1-((tetrahydro-2H-pyran-4-yl)methyl)-1H-indole-5-carbonitrile hydrochloride salt] |  | 64 µg/mL | 32 µg/mL |  | 
